± gives the uncertainty stated by the source.
Assay: xn = mol fraction of the nth substance listed

Compound `c1ccc2c(c1)CCCC2` + CCCCCCCCCC has a viscosity (293.15 K, 100 kPa, x1 = 0.0986) of 0.954 ± 0.02 mPa·s, a viscosity (293.15 K, 100 kPa, x1 = 0.2025) of 1.008 ± 0.021 mPa·s and a viscosity (293.15 K, 100 kPa, x1 = 0.2995) of 1.065 ± 0.023 mPa·s. The viscosity (293.15 K, 100 kPa, x1 = 0.3994) was 1.133 ± 0.024 mPa·s, the viscosity (293.15 K, 100 kPa, x1 = 0.5005) was 1.221 ± 0.026 mPa·s and the viscosity (293.15 K, 100 kPa, x1 = 0.5989) was 1.329 ± 0.028 mPa·s. The viscosity (293.15 K, 100 kPa, x1 = 0.6999) was 1.468 ± 0.031 mPa·s, the viscosity (293.15 K, 100 kPa, x1 = 0.7987) was 1.644 ± 0.035 mPa·s and the viscosity (293.15 K, 100 kPa, x1 = 0.9002) was 1.878 ± 0.04 mPa·s. For the same compound, the viscosity (293.15 K, 101 kPa, x2 = 0.1001) was 1.873 ± 0.014 mPa·s, the viscosity (293.15 K, 101 kPa, x2 = 0.2044) was 1.629 ± 0.012 mPa·s and the viscosity (293.15 K, 101 kPa, x2 = 0.2961) was 1.471 ± 0.011 mPa·s. The viscosity (293.15 K, 101 kPa, x2 = 0.3964) was 1.345 ± 0.011 mPa·s, the viscosity (293.15 K, 101 kPa, x2 = 0.4994) was 1.226 ± 0.01 mPa·s and the viscosity (293.15 K, 101 kPa, x2 = 0.6017) was 1.143 ± 0.009 mPa·s. The viscosity (293.15 K, 101 kPa, x2 = 0.6964) was 1.071 ± 0.009 mPa·s, the viscosity (293.15 K, 101 kPa, x2 = 0.7971) was 1.015 ± 0.009 mPa·s and the viscosity (293.15 K, 101 kPa, x2 = 0.8894) was 0.968 ± 0.008 mPa·s. The viscosity (298.15 K, 100 kPa, x1 = 0.0986) was 0.886 ± 0.019 mPa·s, the viscosity (298.15 K, 100 kPa, x1 = 0.2025) was 0.936 ± 0.02 mPa·s and the viscosity (298.15 K, 100 kPa, x1 = 0.2995) was 0.987 ± 0.021 mPa·s. The viscosity (298.15 K, 100 kPa, x1 = 0.3994) was 1.043 ± 0.022 mPa·s, the viscosity (298.15 K, 100 kPa, x1 = 0.5005) was 1.127 ± 0.024 mPa·s and the viscosity (298.15 K, 100 kPa, x1 = 0.5989) was 1.224 ± 0.026 mPa·s. For the same compound, the viscosity (298.15 K, 100 kPa, x1 = 0.6999) was 1.347 ± 0.029 mPa·s, the viscosity (298.15 K, 100 kPa, x1 = 0.7987) was 1.495 ± 0.032 mPa·s and the viscosity (298.15 K, 100 kPa, x1 = 0.9002) was 1.708 ± 0.036 mPa·s. The viscosity (298.15 K, 101 kPa, x2 = 0.1001) was 1.703 ± 0.013 mPa·s, the viscosity (298.15 K, 101 kPa, x2 = 0.2044) was 1.486 ± 0.011 mPa·s and the viscosity (298.15 K, 101 kPa, x2 = 0.2961) was 1.349 ± 0.011 mPa·s. It also gave a viscosity (298.15 K, 101 kPa, x2 = 0.3964) of 1.238 ± 0.01 mPa·s, a viscosity (298.15 K, 101 kPa, x2 = 0.4994) of 1.134 ± 0.009 mPa·s and a viscosity (298.15 K, 101 kPa, x2 = 0.6017) of 1.06 ± 0.009 mPa·s. For the same compound, the viscosity (298.15 K, 101 kPa, x2 = 0.6964) was 0.993 ± 0.009 mPa·s, the viscosity (298.15 K, 101 kPa, x2 = 0.7971) was 0.942 ± 0.008 mPa·s and the viscosity (298.15 K, 101 kPa, x2 = 0.8894) was 0.9 ± 0.008 mPa·s. For the same compound, the viscosity (303.15 K, 100 kPa, x1 = 0.0986) was 0.827 ± 0.018 mPa·s, the viscosity (303.15 K, 100 kPa, x1 = 0.2025) was 0.871 ± 0.019 mPa·s and the viscosity (303.15 K, 100 kPa, x1 = 0.2995) was 0.919 ± 0.02 mPa·s. The viscosity (303.15 K, 100 kPa, x1 = 0.3994) was 0.973 ± 0.021 mPa·s, the viscosity (303.15 K, 100 kPa, x1 = 0.5005) was 1.045 ± 0.022 mPa·s and the viscosity (303.15 K, 100 kPa, x1 = 0.5989) was 1.132 ± 0.024 mPa·s. It also gave a viscosity (303.15 K, 100 kPa, x1 = 0.6999) of 1.243 ± 0.026 mPa·s, a viscosity (303.15 K, 100 kPa, x1 = 0.7987) of 1.382 ± 0.029 mPa·s and a viscosity (303.15 K, 100 kPa, x1 = 0.9002) of 1.564 ± 0.033 mPa·s. It also gave a viscosity (303.15 K, 101 kPa, x2 = 0.1001) of 1.56 ± 0.012 mPa·s, a viscosity (303.15 K, 101 kPa, x2 = 0.2044) of 1.368 ± 0.011 mPa·s and a viscosity (303.15 K, 101 kPa, x2 = 0.2961) of 1.245 ± 0.01 mPa·s. For the same compound, the viscosity (303.15 K, 101 kPa, x2 = 0.3964) was 1.148 ± 0.009 mPa·s, the viscosity (303.15 K, 101 kPa, x2 = 0.4994) was 1.053 ± 0.009 mPa·s and the viscosity (303.15 K, 101 kPa, x2 = 0.6017) was 0.986 ± 0.009 mPa·s. It also gave a viscosity (303.15 K, 101 kPa, x2 = 0.6964) of 0.925 ± 0.008 mPa·s, a viscosity (303.15 K, 101 kPa, x2 = 0.7971) of 0.878 ± 0.008 mPa·s and a viscosity (303.15 K, 101 kPa, x2 = 0.8894) of 0.838 ± 0.008 mPa·s. The viscosity (308.15 K, 100 kPa, x1 = 0.0986) was 0.774 ± 0.016 mPa·s, the viscosity (308.15 K, 100 kPa, x1 = 0.2025) was 0.814 ± 0.017 mPa·s and the viscosity (308.15 K, 100 kPa, x1 = 0.2995) was 0.859 ± 0.018 mPa·s. The viscosity (308.15 K, 100 kPa, x1 = 0.3994) was 0.908 ± 0.019 mPa·s, the viscosity (308.15 K, 100 kPa, x1 = 0.5005) was 0.973 ± 0.021 mPa·s and the viscosity (308.15 K, 100 kPa, x1 = 0.5989) was 1.047 ± 0.022 mPa·s. For the same compound, the viscosity (308.15 K, 100 kPa, x1 = 0.6999) was 1.151 ± 0.024 mPa·s, the viscosity (308.15 K, 100 kPa, x1 = 0.7987) was 1.276 ± 0.027 mPa·s and the viscosity (308.15 K, 100 kPa, x1 = 0.9002) was 1.437 ± 0.031 mPa·s. The viscosity (313.15 K, 100 kPa, x1 = 0.0986) was 0.727 ± 0.015 mPa·s, the viscosity (313.15 K, 100 kPa, x1 = 0.2025) was 0.763 ± 0.016 mPa·s and the viscosity (313.15 K, 100 kPa, x1 = 0.2995) was 0.805 ± 0.017 mPa·s. For the same compound, the viscosity (313.15 K, 100 kPa, x1 = 0.3994) was 0.85 ± 0.018 mPa·s, the viscosity (313.15 K, 100 kPa, x1 = 0.5005) was 0.909 ± 0.019 mPa·s and the viscosity (313.15 K, 100 kPa, x1 = 0.5989) was 0.977 ± 0.021 mPa·s. For the same compound, the viscosity (313.15 K, 100 kPa, x1 = 0.6999) was 1.07 ± 0.023 mPa·s, the viscosity (313.15 K, 100 kPa, x1 = 0.7987) was 1.182 ± 0.025 mPa·s and the viscosity (313.15 K, 100 kPa, x1 = 0.9002) was 1.326 ± 0.028 mPa·s. The viscosity (313.15 K, 101 kPa, x2 = 0.1001) was 1.328 ± 0.01 mPa·s, the viscosity (313.15 K, 101 kPa, x2 = 0.2044) was 1.175 ± 0.01 mPa·s and the viscosity (313.15 K, 101 kPa, x2 = 0.2961) was 1.073 ± 0.009 mPa·s. For the same compound, the viscosity (313.15 K, 101 kPa, x2 = 0.3964) was 0.995 ± 0.009 mPa·s, the viscosity (313.15 K, 101 kPa, x2 = 0.4994) was 0.917 ± 0.008 mPa·s and the viscosity (313.15 K, 101 kPa, x2 = 0.6017) was 0.862 ± 0.008 mPa·s. For the same compound, the viscosity (313.15 K, 101 kPa, x2 = 0.6964) was 0.809 ± 0.008 mPa·s, the viscosity (313.15 K, 101 kPa, x2 = 0.7971) was 0.77 ± 0.008 mPa·s and the viscosity (313.15 K, 101 kPa, x2 = 0.8894) was 0.737 ± 0.007 mPa·s. The viscosity (318.15 K, 100 kPa, x1 = 0.0986) was 0.685 ± 0.015 mPa·s, the viscosity (318.15 K, 100 kPa, x1 = 0.2025) was 0.718 ± 0.015 mPa·s and the viscosity (318.15 K, 100 kPa, x1 = 0.2995) was 0.757 ± 0.016 mPa·s. For the same compound, the viscosity (318.15 K, 100 kPa, x1 = 0.3994) was 0.798 ± 0.017 mPa·s, the viscosity (318.15 K, 100 kPa, x1 = 0.5005) was 0.852 ± 0.018 mPa·s and the viscosity (318.15 K, 100 kPa, x1 = 0.5989) was 0.916 ± 0.019 mPa·s. The viscosity (318.15 K, 100 kPa, x1 = 0.6999) was 0.999 ± 0.021 mPa·s, the viscosity (318.15 K, 100 kPa, x1 = 0.7987) was 1.101 ± 0.023 mPa·s and the viscosity (318.15 K, 100 kPa, x1 = 0.9002) was 1.23 ± 0.026 mPa·s. For the same compound, the viscosity (323.15 K, 100 kPa, x1 = 0.0986) was 0.647 ± 0.014 mPa·s, the viscosity (323.15 K, 100 kPa, x1 = 0.2025) was 0.678 ± 0.014 mPa·s and the viscosity (323.15 K, 100 kPa, x1 = 0.2995) was 0.713 ± 0.015 mPa·s. The viscosity (323.15 K, 100 kPa, x1 = 0.3994) was 0.752 ± 0.016 mPa·s, the viscosity (323.15 K, 100 kPa, x1 = 0.5005) was 0.802 ± 0.017 mPa·s and the viscosity (323.15 K, 100 kPa, x1 = 0.5989) was 0.859 ± 0.018 mPa·s. The viscosity (323.15 K, 100 kPa, x1 = 0.6999) was 0.936 ± 0.02 mPa·s, the viscosity (323.15 K, 100 kPa, x1 = 0.7987) was 1.028 ± 0.022 mPa·s and the viscosity (323.15 K, 100 kPa, x1 = 0.9002) was 1.147 ± 0.024 mPa·s.
